Results as given in US20240376094A2, “SELECTIVE BCL-XL PROTAC COMPOUNDS AND METHODS OF USE” (Les Laboratoires Servier, priority 2021, published 2024).
pIC50: −log10 of the molar value.

Experiments:
Type in all cases: cell-based
HiBiT-tagged BCL-xL = target: T1, HiBiT-tagged BCL-xL (Homo sapiens, UniProt Q07817); experiment: NCI-H1650 BCL-xL protein levels, Nano-Glo HiBiT Lytic Detection; settings: NCI-H1650 expressing HiBiT-tagged BCL-xL, overnight incubation, read-out: Bcl-xl HIBIT NCIH1650 DC50
T1 construct: expressed in transfected cells; host or cells: NCI-H1650 (ATCC No. CRL-5883), engineered HiBiT cell line
T1 sequence (Q07817 whole entry): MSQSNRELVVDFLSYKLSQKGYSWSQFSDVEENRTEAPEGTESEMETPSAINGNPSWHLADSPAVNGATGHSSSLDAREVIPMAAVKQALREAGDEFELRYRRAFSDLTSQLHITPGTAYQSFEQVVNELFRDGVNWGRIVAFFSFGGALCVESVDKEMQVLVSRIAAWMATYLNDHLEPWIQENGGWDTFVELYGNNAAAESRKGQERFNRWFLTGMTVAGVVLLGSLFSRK
Method in brief: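 NCI-H1650 cells expressing HiBiT-tagged BCL-xL (5000/well) were treated overnight at 37° C with 10 concentrations, final 0.508 nM-10 μM, in triplicate. Remaining BCL-xL measured by Nano-Glo HiBiT lytic luminescence, normalized to untreated cells; 50% values by four-parameter logistic fit.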

Bcl-xL = target: T2, Bcl-xL (Homo sapiens, UniProt Q07817); experiment: HCT116 Bcl-xL degradation, capillary-based immunoassay (WES); settings: HCT116, 24 h, 9-point serial dilution
T2 construct: Measured levels of Bcl-xL protein of HCT116 cells treated with the tested compounds; host or cells: HCT116
T2 sequence (Q07817 whole entry): as above
Method in brief: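 HCT116 cells treated 24 h with compound at 10/100 nM and/or 9-point dilution (quadruplicates), then lysed. Bcl-xL measured by capillary WES immunoassay, normalized to cofilin and expressed as % of untreated cells. DC50 from four-parameter curve fit.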

MOLT-4 cells = experiment: MOLT-4 cell viability, CTG assay; settings: Homo sapiens, MOLT-4, 48 h
Method in brief: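 Cells grown in RPMI 1640 with 10% FBS at 37° C, 5% CO2, then exposed to compounds for 48 h (11-point 5-fold dilution, triplicates). ATP measured by CellTiter-Glo luminescence; IC50 from four-parameter fit versus control, mean of ≥2 independent experiments.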

[1] = tested on: EBC-1 lung cancer cell line; experiment: EBC-1 cell proliferation, CellTiter-Glo assay; settings: Homo sapiens, 120 h; Ebc-1 cell viability, CTG assay, 5 days of treatment; read-out: CTG 5 day Ebc1 GI50
Method in brief: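 EBC-1 cells seeded at 1000 per well overnight, then exposed to 10-point dilutions (0.508 nM–10 μM final) for 5 days at 37 °C, in triplicate. ATP luminescence by CellTiter-Glo, normalised to untreated wells; GI50 from four-parameter logistic fit, runs valid only with at least one doubling.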

SMILES	DC50 (HiBiT-tagged BCL-xL)	DC50 (Bcl-xL)	pIC50 (MOLT-4 cells)	GI50 [1]
Cc1ncsc1-c1ccc([C@H](C)NC(=O)C2C[C@@H](O)CN2C(=O)C(NC(=O)COCCOCCOCCOCCN(C)CCOC23CC4(C)CC(C)(CC(Cn5ncc(-c6ccc(N7CCCc8c7nnc(Nc7nc9ccccc9s7)c8C)nc6C(=O)O)c5C)(C4)C2)C3)C(C)(C)C)cc1 (stereo in doubt) [Example 87, 6-[3-(1,3-benzothiazol-2-ylamino)-4-methyl-6,7-dihydro-5H-pyrido[2,3-c]pyridazin-8-yl]-3-[1-[[3-[2-[2-[2-[2-[2-[2-[[(1S)-1-[(2S,4R)-4-hydroxy-2-[[(1S)-1-[4-(4-methylthiazol-5-yl)phenyl]ethyl]carbamoyl]pyrrolidine-1-carbonyl]-2,2-dimethyl-propyl]amino]-2-oxo-ethoxy]ethoxy]ethoxy]ethoxy]ethyl-methyl-amino]ethoxy]-5,7-dimethyl-1-adamantyl]methyl]-5-methyl-pyrazol-4-yl]pyridine-2-carboxylic acid]	> 1670 nM	> 316 nM	7.46	216 nM
Cc1ncsc1-c1ccc(CNC(=O)[C@@H]2C[C@@H](O)CN2C(=O)[C@@H](NC(=O)C2(F)CC2)C(C)(C)C)c(OCCCCCCCCCCN(C)CCOC23CC4(C)CC(C)(CC(Cn5ncc(-c6ccc(N7CCCc8c7nnc(Nc7nc9ccccc9s7)c8C)nc6C(=O)O)c5C)(C4)C2)C3)c1 [Example 73, 6-[3-(1,3-benzothiazol-2-ylamino)-4-methyl-6,7-dihydro-5H-pyrido[2,3-c]pyridazin-8-yl]-3-[1-[[3-[2-[10-[2-[[[(2S,4R)-1-[(2S)-2-[(1-fluorocyclopropanecarbonyl)amino]-3,3-dimethyl-butanoyl]-4-hydroxy-pyrrolidine-2-carbonyl]amino]methyl]-5-(4-methylthiazol-5-yl)phenoxy]decyl-methyl-amino]ethoxy]-5,7-dimethyl-1-adamantyl]methyl]-5-methyl-pyrazol-4-yl]pyridine-2-carboxylic acid]	13 nM	7.69 nM	7.62	186 nM
Cc1ncsc1-c1ccc([C@H](C)NC(=O)[C@@H]2C[C@@H](O)CN2C(=O)[C@@H](NC(=O)CCOCCOCCOCCOCCN(C)CCOC23CC4(C)CC(C)(CC(Cn5ncc(-c6ccc(N7CCCc8c7nnc(Nc7nc9ccccc9s7)c8C)nc6C(=O)O)c5C)(C4)C2)C3)C(C)(C)C)cc1 [Example 89, 6-[3-(1,3-benzothiazol-2-ylamino)-4-methyl-6,7-dihydro-5H-pyrido[2,3-c]pyridazin-8-yl]-3-[1-[[3-[2-[2-[2-[2-[2-[3-[[(1S)-1-[(2S,4R)-4-hydroxy-2-[[(1S)-1-[4-(4-methylthiazol-5-yl)phenyl]ethyl]carbamoyl]pyrrolidine-1-carbonyl]-2,2-dimethyl-propyl]amino]-3-oxo-propoxy]ethoxy]ethoxy]ethoxy]ethyl-methyl-amino]ethoxy]-5,7-dimethyl-1-adamantyl]methyl]-5-methyl-pyrazol-4-yl]pyridine-2-carboxylic acid]	13 nM	> 316 nM	7.24	435 nM
Cc1ncsc1-c1ccc([C@H](C)NC(=O)[C@@H]2C[C@@H](O)CN2C(=O)[C@@H](NC(=O)C2CCN(C(=O)CCCCCCCCCN(C)CCOC34CC5(C)CC(C)(CC(Cn6ncc(-c7ccc(N8CCCc9c8nnc(Nc8nc%10ccccc%10s8)c9C)nc7C(=O)O)c6C)(C5)C3)C4)CC2)C(C)(C)C)cc1 [Example 84, 6-[3-(1,3-benzothiazol-2-ylamino)-4-methyl-6,7-dihydro-5H-pyrido[2,3-c]pyridazin-8-yl]-3-[1-[[3-[2-[[10-[4-[[(1S)-1-[(2S,4R)-4-hydroxy-2-[[(1S)-1-[4-(4-methylthiazol-5-yl)phenyl]ethyl]carbamoyl]pyrrolidine-1-carbonyl]-2,2-dimethyl-propyl]carbamoyl]-1-piperidyl]-10-oxo-decyl]-methyl-amino]ethoxy]-5,7-dimethyl-1-adamantyl]methyl]-5-methyl-pyrazol-4-yl]pyridine-2-carboxylic acid]	> 1670 nM	> 316 nM	7.74	171 nM

More lines, now with the values ahead:

DC50 (HiBiT-tagged BCL-xL)	DC50 (Bcl-xL)	pIC50 (MOLT-4 cells)	GI50 [1]	SMILES
1 nM	0.155 nM	8.11	98 nM	Cc1ncsc1-c1ccc([C@H](C)NC(=O)[C@@H]2C[C@@H](O)CN2C(=O)[C@@H](NC(=O)COCCCCCCCCCN(C)CCOC23CC4(C)CC(C)(CC(Cn5ncc(-c6ccc(N7CCCc8c7nnc(Nc7nc9ccccc9s7)c8C)nc6C(=O)O)c5C)(C4)C2)C3)C(C)(C)C)cc1 [Example 109, 6-[3-(1,3-benzothiazol-2-ylamino)-4-methyl-6,7-dihydro-5H-pyrido[2,3-c]pyridazin-8-yl]-3-[1-[[3-[2-[9-[2-[[(1S)-1-[(2S,4R)-4-hydroxy-2-[[(1S)-1-[4-(4-methylthiazol-5-yl)phenyl]ethyl]carbamoyl]pyrrolidine-1-carbonyl]-2,2-dimethyl-propyl]amino]-2-oxo-ethoxy]nonyl-methyl-amino]ethoxy]-5,7-dimethyl-1-adamantyl]methyl]-5-methyl-pyrazol-4-yl]pyridine-2-carboxylic acid]
1 nM	0.487 nM	8.03	81 nM	Cc1ncsc1-c1ccc([C@H](C)NC(=O)[C@@H]2C[C@@H](O)CN2C(=O)[C@@H](NC(=O)CCCCCCCCCCNC(=O)c2nc(N3CCCc4c3nnc(Nc3nc5ccccc5s3)c4C)ccc2-c2cnn(CC34CC5(C)CC(C)(C3)CC(OCCN3CCCC3)(C5)C4)c2C)C(C)(C)C)cc1 [Example 125, 6-[3-(1,3-benzothiazol-2-ylamino)-4-methyl-6,7-dihydro-5H-pyrido[2,3-c]pyridazin-8-yl]-3-[1-[[3,5-dimethyl-7-(2-pyrrolidin-1-ylethoxy)-1-adamantyl]methyl]-5-methyl-pyrazol-4-yl]-N-[11-[[(1S)-1-[(2S,4R)-4-hydroxy-2-[[(1S)-1-[4-(4-methylthiazol-5-yl)phenyl]ethyl]carbamoyl]pyrrolidine-1-carbonyl]-2,2-dimethyl-propyl]amino]-11-oxo-undecyl]pyridine-2-carboxamide]
> 1670 nM	0.986 nM	8.52	3 nM	Cc1ncsc1-c1ccc(CNC(=O)[C@@H]2C[C@@H](O)CN2C(=O)[C@@H](NC(=O)C2(F)CC2)C(C)(C)C)c(OCCCCCCCCCCCCCCN(C)CCOC23CC4(C)CC(C)(CC(Cn5ncc(-c6ccc(N7CCCc8c7nnc(Nc7nc9ccccc9s7)c8C)nc6C(=O)O)c5C)(C4)C2)C3)c1 [Example 146, 6-[3-(1,3-benzothiazol-2-ylamino)-4-methyl-6,7-dihydro-5H-pyrido[2,3-c]pyridazin-8-yl]-3-[1-[[3-[2-[14-[2-[[[(2S,4R)-1-[(2S)-2-[(1-fluorocyclopropanecarbonyl)amino]-3,3-dimethyl-butanoyl]-4-hydroxy-pyrrolidine-2-carbonyl]amino]methyl]-5-(4-methylthiazol-5-yl)phenoxy]tetradecyl-methyl-amino]ethoxy]-5,7-dimethyl-1-adamantyl]methyl]-5-methyl-pyrazol-4-yl]pyridine-2-carboxylic acid]
0.5 nM	0.4 nM	8.58	41 nM	Cc1ncsc1-c1ccc([C@H](C)NC(=O)[C@@H]2C[C@@H](O)CN2C(=O)[C@@H](NC(=O)COCCCCCCCCCCCCCN(C)CCOC23CC4(C)CC(C)(CC(Cn5ncc(-c6ccc(N7CCCc8c7nnc(Nc7nc9ccccc9s7)c8C)nc6C(=O)O)c5C)(C4)C2)C3)C(C)(C)C)cc1 [Example 111, 6-[3-(1,3-benzothiazol-2-ylamino)-4-methyl-6,7-dihydro-5H-pyrido[2,3-c]pyridazin-8-yl]-3-[1-[[3-[2-[13-[2-[[(1S)-1-[(2S,4R)-4-hydroxy-2-[[(1S)-1-[4-(4-methylthiazol-5-yl)phenyl]ethyl]carbamoyl]pyrrolidine-1-carbonyl]-2,2-dimethyl-propyl]amino]-2-oxo-ethoxy]tridecyl-methyl-amino]ethoxy]-5,7-dimethyl-1-adamantyl]methyl]-5-methyl-pyrazol-4-yl]pyridine-2-carboxylic acid]
1 nM	0.857 nM	8.39	2 nM	Cc1ncsc1-c1ccc([C@H](C)NC(=O)[C@@H]2C[C@@H](O)CN2C(=O)[C@@H](NC(=O)CCCCCCCCCNC(=O)c2nc(N3CCCc4c3nnc(Nc3nc5ccccc5s3)c4C)ccc2-c2cnn(CC34CC5(C)CC(C)(C3)CC(OCCN3CCCC3)(C5)C4)c2C)C(C)(C)C)cc1 [Example 130, 6-[3-(1,3-benzothiazol-2-ylamino)-4-methyl-6,7-dihydro-5H-pyrido[2,3-c]pyridazin-8-yl]-3-[1-[[3,5-dimethyl-7-(2-pyrrolidin-1-ylethoxy)-1-adamantyl]methyl]-5-methyl-pyrazol-4-yl]-N-[10-[[(1S)-1-[(2S,4R)-4-hydroxy-2-[[(1S)-1-[4-(4-methylthiazol-5-yl)phenyl]ethyl]carbamoyl]pyrrolidine-1-carbonyl]-2,2-dimethyl-propyl]amino]-10-oxo-decyl]pyridine-2-carboxamide]
